Experimental findings from ChEMBL document CHEMBL1201862, “PubChem BioAssay data set” (2004) are described below.

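Compound exposure: 48 hours, 5 concentrations, 96-well plates. GI50: concentration for 50% inhibition of growth.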 The source made the active and inactive calls. No stated cut-off is given here; in the data, active = GI50 up to about 1.1 µM and inactive = higher. Bounds are passed on as bounds.

Among the test systems are CCRF-CEM; SK-MEL-5; K562; 786-0; Malme-3M; NCI-H460; SF-295; HL-60; UACC-257; RPMI-8226; NCI-H23; OVCAR-8; UACC-62; U-251; EKVX; NCI-H522; IGROV-1; HT-29; SNB-75; OVCAR-3.
Assay in all cases: DTP human tumour cell line panel, 48 h

What is called GI50 is the concentration giving 50% growth inhibition.

`O=c1c2ccccc2nc(-c2ccc(Br)cc2)n1NC1OC(CO)C(O)C(O)C1O` (centres undefined): the GI50 is 32.8 µM (inactive) in the experiment on CCRF-CEM; 75.9 µM (inactive) in the experiment on SK-MEL-5; 43.6 µM (inactive) with K562; > 100 µM (inactive) in the experiment with 786-0; > 100 µM (inactive) in the experiment on Malme-3M; > 100 µM (inactive) in the experiment on NCI-H460. Moreover, the GI50 is > 100 µM (inactive) in the experiment with SF-295; 34.1 µM (inactive) with HL-60; > 100 µM (inactive) with UACC-257; 72.9 µM (inactive) in the experiment on RPMI-8226; > 100 µM (inactive) in the experiment with NCI-H23; 91.4 µM (inactive) in the experiment with OVCAR-8. Further, the GI50 with UACC-62 was 79.6 µM (inactive); in the experiment with U-251, > 100 µM (inactive); in the experiment on EKVX, 78.3 µM (inactive); in the experiment with NCI-H522, 81.7 µM (inactive); with IGROV-1 it was > 100 µM (inactive); in the experiment with HT-29, > 100 µM (inactive). In addition, the values for the GI50 with SNB-75 and with OVCAR-3 were 80.5 µM (inactive) and 31.3 µM (inactive), respectively.

With `COc1ccc(C2C3C(=O)C=CC(=O)C3[C@@H]2C)cc1OC` (some centres undefined), the GI50 in the experiment with CCRF-CEM was > 10 µM (inactive); in the experiment on SK-MEL-5, > 100 µM (inactive); in the experiment on K562, 62.7 µM (inactive); with 786-0, 40.7 µM (inactive); in the experiment on Malme-3M, > 100 µM (inactive); in the experiment on NCI-H460 it was > 100 µM (inactive). Further, the GI50 was > 100 µM (inactive) with SF-295; > 10 µM (inactive) in the experiment on HL-60; > 100 µM (inactive) with UACC-257; 27.6 µM (inactive) in the experiment with RPMI-8226; > 100 µM (inactive) in the experiment with NCI-H23; > 100 µM (inactive) in the experiment on OVCAR-8. The GI50 in the experiment on UACC-62 was > 100 µM (inactive); with U-251 it was > 100 µM (inactive); with EKVX, > 100 µM (inactive); in the experiment with NCI-H522, 17.5 µM (inactive); with IGROV-1, > 100 µM (inactive); in the experiment on HT-29, > 100 µM (inactive). For the same compound, the GI50 is 22.1 µM (inactive) in the experiment with SNB-75 and > 100 µM (inactive) in the experiment with OVCAR-3.

Take `CCCCCCCC(=O)OCC1OC(n2cc(F)c(=O)[nH]c2=O)C(NC(=O)OCc2ccccc2)C(OC(=O)CCCCCCC)C1O` (centres undefined): the GI50 is 17.5 µM (inactive) with CCRF-CEM; 0.309 µM (active) with SK-MEL-5; 15.6 µM (inactive) in the experiment with K562; 23.5 µM (inactive) in the experiment with 786-0; 17.9 µM (inactive) in the experiment with Malme-3M; 35.5 µM (inactive) with NCI-H460. Besides, the GI50 with SF-295 is 57 µM (inactive); in the experiment with HL-60, 16.5 µM (inactive); with UACC-257, 39.7 µM (inactive); in the experiment on RPMI-8226, 16.6 µM (inactive); with NCI-H23, 41.4 µM (inactive); with OVCAR-8 it was 34 µM (inactive). Moreover, the GI50 is 19.5 µM (inactive) with UACC-62; 22.9 µM (inactive) in the experiment on U-251; 42.5 µM (inactive) in the experiment on EKVX; 16.7 µM (inactive) in the experiment with NCI-H522; > 100 µM (inactive) in the experiment with IGROV-1; 29.8 µM (inactive) with HT-29. Also, the results for the GI50 in the experiment with SNB-75 and in the experiment on OVCAR-3 were 24.5 µM (inactive) and 20.6 µM (inactive), respectively.

For `O=C1N(C2CCCCC2)CC12CCCCC2`, the GI50 with CCRF-CEM, in the experiment on SK-MEL-5, with K562, in the experiment on 786-0, with Malme-3M and in the experiment with NCI-H460 was > 100 µM (inactive) throughout. In addition, the GI50 in the experiment with HL-60 was 41.2 µM (inactive); in the experiment with RPMI-8226 it was > 100 µM (inactive); with NCI-H23, > 100 µM (inactive); in the experiment on OVCAR-8 it was > 100 µM (inactive); with UACC-62 it was > 100 µM (inactive); in the experiment on U-251, > 100 µM (inactive). Moreover, the GI50 in the experiment on EKVX, with NCI-H522, with IGROV-1 and with SNB-75 was > 100 µM (inactive) in each case.

Regarding `Cc1nc2n(c1/C=C1/C(=O)Nc3cccc(Cl)c31)CCS2`, the GI50 with CCRF-CEM was 50.9 µM (inactive); in the experiment on SK-MEL-5 it was 55.1 µM (inactive); in the experiment with K562 it was 20.3 µM (inactive); in the experiment with 786-0, 40 µM (inactive); in the experiment with Malme-3M it was 50.2 µM (inactive); in the experiment on NCI-H460, > 100 µM (inactive). Besides, the GI50 is 27.5 µM (inactive) in the experiment on SF-295; > 100 µM (inactive) in the experiment with HL-60; > 100 µM (inactive) in the experiment with UACC-257; > 100 µM (inactive) in the experiment with RPMI-8226; 22 µM (inactive) in the experiment with NCI-H23; 25.7 µM (inactive) with OVCAR-8. The GI50 in the experiment with UACC-62 is 33.6 µM (inactive); with U-251, 17 µM (inactive); in the experiment with EKVX, 31.8 µM (inactive); with NCI-H522, 21.5 µM (inactive); with IGROV-1 it was 48.8 µM (inactive); in the experiment with HT-29 it was > 100 µM (inactive). For the same compound, the GI50 was 17.5 µM (inactive) in the experiment with SNB-75 and > 100 µM (inactive) in the experiment on OVCAR-3.

Consider `COc1ccc(OC)c(/C=C/NC=O)c1`, for which the GI50 in the experiment with CCRF-CEM, in the experiment on SK-MEL-5, in the experiment on K562, with 786-0, in the experiment with Malme-3M and in the experiment on NCI-H460 was > 100 µM (inactive) each time. For the same compound, the GI50 with SF-295, in the experiment with HL-60, with UACC-257, in the experiment with RPMI-8226, in the experiment with NCI-H23 and with OVCAR-8 was > 100 µM (inactive) throughout. Further, the GI50 in the experiment on UACC-62, with U-251, with EKVX, in the experiment on NCI-H522, in the experiment on IGROV-1 and with HT-29 was > 100 µM (inactive) in each case. Further, the GI50 with SNB-75 is > 51.6 µM (inactive); in the experiment with OVCAR-3 it was > 100 µM (inactive).

`Cc1ccccc1N1C(=O)C2C=CC(n3[nH]c(=O)n(Cc4ccccc4)c3=O)CC2C1=O` (centres undefined): the GI50 with CCRF-CEM, with SK-MEL-5, in the experiment on K562, in the experiment on 786-0, in the experiment with Malme-3M and in the experiment on NCI-H460 was > 100 µM (inactive) each time. Also, the GI50 with SF-295, in the experiment with HL-60, in the experiment with UACC-257, in the experiment with RPMI-8226, with NCI-H23 and in the experiment on OVCAR-8 was > 100 µM (inactive) in each case. Further, the GI50 in the experiment with UACC-62, in the experiment on U-251, in the experiment with EKVX, in the experiment with NCI-H522, in the experiment on IGROV-1 and with HT-29 was > 100 µM (inactive) throughout. The results for the GI50 in the experiment on SNB-75 and with OVCAR-3 were 70 µM (inactive) and > 100 µM (inactive), respectively.

With `O=C1NC2OCC(O)C(O1)C2O` (centres undefined), the GI50 with CCRF-CEM, with SK-MEL-5, in the experiment with K562, in the experiment with 786-0, in the experiment on Malme-3M and in the experiment on NCI-H460 was > 100 µM (inactive) throughout. For the same compound, the GI50 in the experiment with SF-295, with HL-60, in the experiment on UACC-257, in the experiment on RPMI-8226, with NCI-H23 and in the experiment with OVCAR-8 was > 100 µM (inactive) in each case. Besides, the GI50 in the experiment on UACC-62, in the experiment on U-251, in the experiment on EKVX, in the experiment on NCI-H522, in the experiment on IGROV-1 and in the experiment on HT-29 was > 100 µM (inactive) each time. For the same compound, the GI50 in the experiment on SNB-75 and in the experiment with OVCAR-3 was > 100 µM (inactive) each time.

On to `CCC1=C(C(C)=O)[C@@H]2CCCCC(C(=O)OC)[C@@H]2C1=O` (some centres undefined), for which the GI50 in the experiment on CCRF-CEM, in the experiment with SK-MEL-5, in the experiment with K562, with 786-0, in the experiment on Malme-3M and in the experiment with NCI-H460 was > 100 µM (inactive) each time. Besides, the GI50 in the experiment with SF-295, in the experiment on HL-60, in the experiment on UACC-257, with RPMI-8226, in the experiment with NCI-H23 and in the experiment on OVCAR-8 was > 100 µM (inactive) each time. For the same compound, the GI50 in the experiment on UACC-62 was > 100 µM (inactive); with U-251 it was > 100 µM (inactive); with EKVX, > 100 µM (inactive); in the experiment with NCI-H522, 88.1 µM (inactive); in the experiment with IGROV-1, > 100 µM (inactive); in the experiment on HT-29, > 100 µM (inactive). Moreover, in the experiment on SNB-75, the GI50 was > 100 µM (inactive).

With `Cc1ccc(N2Cc3c(ccc4ccccc34)OP2(=O)Oc2ccc(Cl)c(C)c2)cc1` (centres undefined), the GI50 with CCRF-CEM was > 93.3 µM (inactive); with SK-MEL-5 it was > 100 µM (inactive); in the experiment on K562, > 100 µM (inactive); in the experiment on Malme-3M, > 100 µM (inactive); in the experiment with NCI-H460, 67.5 µM (inactive); with SF-295, > 51.2 µM (inactive). Moreover, the GI50 is > 100 µM (inactive) in the experiment with HL-60; > 100 µM (inactive) in the experiment on UACC-257; 10 µM (inactive) in the experiment with RPMI-8226; > 100 µM (inactive) in the experiment with NCI-H23; > 100 µM (inactive) in the experiment with OVCAR-8; > 100 µM (inactive) in the experiment on UACC-62. Moreover, the GI50 in the experiment on U-251 was > 100 µM (inactive); in the experiment on EKVX, > 100 µM (inactive); with NCI-H522 it was 39.9 µM (inactive); in the experiment with IGROV-1 it was > 100 µM (inactive); with HT-29, > 95.1 µM (inactive); in the experiment with SNB-75, > 100 µM (inactive). In the experiment on OVCAR-3, the GI50 was > 31.6 µM (inactive).
